Experiments:
[1] = target: T1, P-450scc enzyme (Gallus gallus, UniProt O13254); test: Spectrofluorometry of resorufin production in mitochondrial preparations from chicken granulosa and MA-10 cells; assay type: biochemical; conditions: for effect of inhibitor on observed resorufin fluorescence: added to steroidogenic mitochondrial preparations incubated with the probe
T1 sequence (O13254 32-508): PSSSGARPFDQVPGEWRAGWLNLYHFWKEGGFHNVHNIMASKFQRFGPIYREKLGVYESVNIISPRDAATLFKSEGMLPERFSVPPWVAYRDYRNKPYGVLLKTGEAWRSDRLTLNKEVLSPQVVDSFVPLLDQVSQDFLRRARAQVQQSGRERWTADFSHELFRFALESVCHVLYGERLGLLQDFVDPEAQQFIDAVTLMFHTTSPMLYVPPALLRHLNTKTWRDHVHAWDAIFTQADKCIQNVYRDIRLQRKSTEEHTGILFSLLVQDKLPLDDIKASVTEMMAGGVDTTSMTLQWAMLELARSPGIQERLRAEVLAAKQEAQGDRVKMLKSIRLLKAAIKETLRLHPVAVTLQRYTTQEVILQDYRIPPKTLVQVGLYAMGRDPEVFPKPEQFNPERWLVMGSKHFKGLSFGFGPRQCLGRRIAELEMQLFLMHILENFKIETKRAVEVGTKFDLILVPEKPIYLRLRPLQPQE
Procedure: (§1) A saturated stock solution of probe 10 was made in 95% ethanol and filtered with a 0.2 μm filter to a concentration of 100 μM. Probe 10 was added at 1:50 or 1:100 dilutions to cell or mitochondria suspensions.
(§2) Cell Preparations: Granulosa cell layers were collected separately from the 5 largest preovulatory follicles of laying hens and cells were dispersed by collagenase digestion (Endocrinology 122:651-658). The cell concentration was adjusted to 1×10^6 cells/mL in modified medium 199 (no phenol red; added 25 mM HEPES, 0.35 g/L sodium bicarbonate, 100 mg/L 1-glutamate, and 1 g/L bovine serum albumin). The MA-10 cells (Endocrinology 108:88-95) were grown in RPMI-1640 medium supplemented with 15% horse serum and used three days after plating. Cell cultures of the Chinese hamster ovary (CHO) cell line were grown in spinner flasks with Ham's F-10 medium supplemented with 15% bovine calf serum. Media were obtained from Gibco BRL (Gaithersburg, Md.) and sera were obtained from HyClone Laboratories (Logan, Utah). Except where indicated all other reagents for cell preparations were obtained from Sigma Chemical Co. (St. Louis, Mo.). Cells in suspension (1×10^6 /mL) were kept on ice prior to use and at 37° C. during all incubations with probe 10.
(§3) Spectrofluorometry: Fluorescence emission measurements were obtained on a SPEX Fluorolog-II spectrofluorometer (SPEX Industries, Inc., Edison, N.J.) fitted with a thermostatted cuvette holder and interfaced to an IBM-AT computer for data collection and processing. Resorufin fluorescence was measured from 550-700 nm (8 nm slit width) with 530 nm excitation (10 nm slit width). Spectra were background-corrected by spectral subtraction of the initial (zero) time point. Samples were incubated at 37° C. during the experiment.

[2] = test system: nonsteroidogenic CHO cells; test: Fourier transform flow cytometry with nonsteroidogenic CHO cells; assay type: cell-based, Chinese hamster
Procedure: as §2
A single argon laser tuned to 514 nm was used to excite both the substrate and product. […]
(§4) By monitoring spectral changes in the cellular fluorescence at discrete time points from 30 min to 5 h with the FTCS-1 an increased metabolism of the substrate to the product resorufin was observed. […]

[3] = test system: P-450scc; test: Selectivity of the probe in intact mitochondria and cells; assay type: cell-based
Procedure: as §1

[4] = Fluorescence quantum efficiency relative to the resorufin anion; assay type: physicochemical; conditions: resorufin conjugated at C-22
Source text: Referring now to FIG. 2, the P-450scc probe 10 is a cholene-based steroid covalently conjugated at the C-22 position to resorufin. As a result of this conjugation the resorufin fluorescence is shifted and has a 40-fold lower quantum efficiency than the resorufin anion. Specificity of probe 10 for the P-450scc enzyme is achieved by incorporating known structural and stereochemical features to the cholene-ring for enzyme recognition. Generation of a fluorescent signal is obtained by release of the resorufin moiety 16 by the side chain cleavage enzyme.
Resorufin (7-hydroxy-3H-phenoxazin-3-one) was chosen as a fluorogenic reporter because of its advantageous spectral properties and its modest size. […] Presumably, metabolism of a resorufin ether 10 by P-450scc proceeds by hydroxylation at the C-1 position of the ether side chain, to yield a resorufin hemiacetal that undergoes cleavage to afford the highly fluorescent resorufin anion. The fluorescence signal generated by the formation of resorufin anion is a quantitative indicator of enzyme activity.

[5] = test system: P-450scc enzyme; test: Spectrofluorometry of probe metabolism in MA-10 and granulosa cell suspensions; assay type: cell-based
Procedure: as §1
(§5) Cell Preparations: Granulosa cell layers were collected separately from the 5 largest preovulatory follicles of laying hens and cells were dispersed by collagenase digestion (Endocrinology 122:651-658). The cell concentration was adjusted to 1×10^6 cells/mL in modified medium 199 (no phenol red; added 25 mM HEPES, 0.35 g/L sodium bicarbonate, 100 mg/L 1-glutamate, and 1 g/L bovine serum albumin). […]
as §3, with “Spectra were background-corrected by spectral subtraction of the initial (zero) time point. Samples were incubated at 37° C. during the experiment.” left out
To confirm cellular metabolism, both MA-10 and granulosa cell suspensions were incubated with varying concentrations of the probe substrate. Fluorescence emission was monitored at discrete times from 0-4 h. […] Based on the amount of fluorescence in a typical cell incubation the cumulative conversion of the probe was in the concentration range of 100-300 pM. […]

[6] = test system: granulosa cells; test: Conventional two-laser flow cytometric analysis of P-450scc activity in granulosa cells; assay type: cell-based, laying hens; conditions: 37° C., 5 min to 2 h
Procedure: as §2
Uptake of the substrate (green fluorescence) plateaued at 30 minutes, presumably as the cells equilibrated with the P-450scc probe in solution.

[7] = test system: nonsteroidogenic CHO cells; test: Spectrofluorometry with mitochondrial preparations from nonsteroidogenic CHO cells; assay type: biochemical, Chinese hamster
Procedure: as §1
as §2, with “Except where indicated all other reagents for cell preparations were obtained from Sigma Chemical Co. (St. Louis, Mo.). Cells in suspension (1×10^6 /mL) were kept on ice prior to use and at 37° C. during all incubations with probe 10.” left out
as §3, with “Spectra were background-corrected by spectral subtraction of the initial (zero) time point. Samples were incubated at 37° C. during the experiment.” left out

[8] = test system: granulosa cells; test: Fourier transform flow cytometry of substrate metabolism in individual granulosa cells; assay type: cell-based, laying hens
Procedure: as §2, with “Except where indicated all other reagents for cell preparations were obtained from Sigma Chemical Co. (St. Louis, Mo.). Cells in suspension (1×10^6 /mL) were kept on ice prior to use and at 37° C. during all incubations with probe 10.” left out
The Fourier transform flow cytometer was used to track the metabolism of the fluorogenic substrate in individual granulosa cells. […] Using this instrument, cellular fluorescence of the substrate is resolved from the cellular fluorescence of the product, resorufin anion, based on their unique spectral characteristics during the uptake and metabolism of the P-450scc probe.
as §4

[9] = assay type: physicochemical; conditions: 95% ethanol
Procedure: as §1

[10] = test system: granulosa or MA-10 cells; test: Progesterone radioimmunoassay after incubation of granulosa or MA-10 cells with the probe; assay type: cell-based; conditions: 3-5 h incubation, 1-2 μM probe
Procedure: as §5, with “albumin). The MA-10 cells (Endocrinology 108:88-95) were grown in RPMI-1640 medium supplemented with 15% horse serum and used three days after plating. Cell cultures of the Chinese hamster ovary (CHO) cell line were grown in spinner flasks with Ham's F-10 medium supplemented with 15% bovine calf serum.” for “albumin).”
To confirm cellular metabolism, both MA-10 and granulosa cell suspensions were incubated with varying concentrations of the probe substrate. Fluorescence emission was monitored at discrete times from 0-4 h. […] Based on the amount of fluorescence in a typical cell incubation the cumulative conversion of the probe was in the concentration range of 100-300 pM. After long (3-5 h) incubations of granulosa or MA-10 cells with a high concentration (1-2 μM) of the P-450scc probe, a two-fold accumulation of progesterone over the background progesterone content of the cells was measured by specific progesterone radioimmunoassay (Endocrine Sciences, Tarzana, Calif.).

Row | SMILES | effect of inhibitor on observed resorufin fluorescence [1] | cellular fluorescence spectrum ([2]; CHO cells, 3 h incubation) | metabolism of the substrate to resorufin ([2]; nonsteroidogenic CHO cells) | selectivity [3] | resorufin production ([1]; steroidogenic mitochondria (chicken granulosa, MA-10), 30 min to 5 h, substrate 0.01 to 2 μM) | quantum efficiency lower than the resorufin anion [4] [fold] | resorufin fluorescence over time ([5]; MA-10 and granulosa cell suspensions, 0-4 h, varying probe concentrations) | cumulative conversion of the probe ([5]; typical cell incubation, based on amount of fluorescence) [pM] | product (red fluorescence) in cells during incubation [6] | time at which uptake of the substrate (green fluorescence) plateaued [6] [min] | production of fluorescence [7] | average ratio of the two fluorescent components (substrate and resorufin) over time ([8]; 30 min to 5 h) | alignment of the cell distribution with the product resorufin ([8]; after 5 h) [%] | concentration of saturated stock solution [9] [µM] | accumulation of progesterone over background progesterone content of the cells [10]
1 | CCC1(c2ccc(N)cc2)CCC(=O)NC1=O (stereo not shown) [aminoglutethimide] | attenuated the observed fluorescence | – | – | – | – | – | – | – | – | – | – | – | – | – | –
2 | CC(=O)N1CCN(c2ccc(OCC3COC(Cn4ccnc4)(c4ccc(Cl)cc4Cl)O3)cc2)CC1 (stereo not shown) [ketoconazole] | attenuated the observed fluorescence | – | – | – | – | – | – | – | – | – | – | – | – | – | –
3 | C[C@H](COc1ccc2nc3ccc(=O)cc-3oc2c1)[C@H]1CC[C@H]2[C@@H]3CC=C4C[C@@H](O)CC[C@]4(C)[C@H]3CC[C@]12C [probe 10, 22-phenoxazonoxy-5-cholene-3β-ol] | – | remained primarily consistent with the substrate spectrum | no evidence of significant metabolism | selective for P-450scc activity | resorufin production was observed | 40 | linear increase in resorufin fluorescence | 100 to 300 | continued to increase | 30 | no production of fluorescence | linear increase | ~100 | 100 | two-fold

— patent US5110725A, “Optical probe for the cytochrome P-450 cholesterol side chain cleavage enzyme” (The United States of America as represented by the United …, priority 1991, dated 1992)
